Data reported in patent US10927086B2, “Substituted sulfoximine compounds as indoleamine 2,3-dioxygenase (IDO) inhibitors” (Merck Sharp & Dohme Corp., priority 2017, dated 2021).

Experiments:
IDO1 [1] = target: T1, IDO1 (Homo sapiens (Human), UniProt P14902); assay: IDO1 Enzyme Assay; type: biochemical; details: HIS-tagged recombinant IDO1, fluorescence readout
Experimental: (§1) Compounds to be tested were serially diluted in ten 3-fold steps in DMSO starting from 10 mM DMSO stocks. Compound dilutions or DMSO alone were then dispensed from the dilution plate into a Greiner black 384-well assay plate (catalog #781086) using an Echo 555 acoustic liquid handler (Labcyte).
HIS-tagged IDO1 protein was recombinantly expressed in Escherichia coli using ZYP5052 autoinduction media supplemented with 500 μM delta aminolevulinic acid for 48 h at 16° C. IDO1 protein was purified using Ni^2+-affinity resin and size exclusion chromatography. Purified protein was then diluted in assay buffer (50 mM Tris pH 7.0, 1% glycerol, 20 μM methylene blue, 0.05% Tween-20, 20 mM sodium ascorbate, 100 units/mL catalase to obtain a final IDO1 concentration of 40 nM. IDO1 solution […] or buffer alone ([…]) were dispensed to wells of the assay plate using a BioRAPTR liquid dispenser (Beckman Coulter). Assay plates containing compound and IDO1 enzyme were incubated at RT for 30 min. Afterwards, 10 μL of 400 μM tryptophan in assay buffer were added to each well of the assay plate using a BioRAPTR liquid dispenser. Plates were incubated at RT for 60 min and reactions were quenched by addition of 10 μL of 0.5 M methyl isonipecotate in dimethyl sulfoxide. Plates were sealed and incubated at 37° C. for 4 h or 50° C. for 2 h. The plates are allowed to cool and then centrifuged for 1 min at 1000×g. The resulting fluoresence was measured in an Envision plate reader (Perkin Elmer) with a 400/25 nm excitation filter and an 510/20 nm emission filter.
Potencies were calculated by linear least squares fit to the four parameter logistic IC50 equation.
Target sequence in this assay (P14902 whole entry, species assumed): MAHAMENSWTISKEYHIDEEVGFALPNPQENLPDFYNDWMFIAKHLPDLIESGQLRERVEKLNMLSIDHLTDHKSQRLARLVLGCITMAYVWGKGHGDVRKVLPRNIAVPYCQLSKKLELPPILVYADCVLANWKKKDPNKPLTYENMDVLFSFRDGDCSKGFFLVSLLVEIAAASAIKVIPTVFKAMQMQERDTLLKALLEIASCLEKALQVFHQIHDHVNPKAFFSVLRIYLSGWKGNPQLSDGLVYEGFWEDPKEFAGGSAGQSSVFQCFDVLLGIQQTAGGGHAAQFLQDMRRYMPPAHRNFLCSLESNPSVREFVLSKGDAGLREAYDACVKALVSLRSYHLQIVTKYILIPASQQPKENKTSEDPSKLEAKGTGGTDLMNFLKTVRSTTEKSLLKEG

IDO1 [2] = target: T1, IDO1; assay: IDO1 Cellular Assay in Hela Cells Stimulated with IFNγ; type: cell-based; details: about 48 hours, read-out: IDO1 HELA Cell Assay, IC50
Experimental: Hela cells were cultured in complete Hela culture medium (90% EMEM, 10% heat-inactivated fetal bovine serum) and expanded to about 1×10^9 cells. The cells were then collected and frozen down at 10×10^6 cells/vial in 1 mL frozen medium (90% complete Hela culture medium, 10% DMSO)
as §1, with “stocks in Echo low volume plate(s).” for “stocks.”, “plate(s)” for “plate”, “into” for “into a”, “#781086, 50 nL/well)” for “#781086)”, “550” for “555”
Target sequence in this assay (P14902 whole entry): as the sequence (P14902 whole entry, species assumed) above
Frozen Hela cells were thawed and transferred into Hela assay medium (99% complete Hela culture medium, 1% Pen/Strep) with 20 mL medium/vial of cells. The cells were spun down at 250 g in a table top centrifuge for 5 min and suspended in same volume of Hela assay medium. The cells were then counted and adjusted to a density of 2×10^5 cells/ml in Hela assay medium. Sterile L-tryptophan were added to the cells with final concentration of 300 uM L-tryptophan. A small aliquot (2 mL/plate) of Hela cells were set aside and were not treated with IFNγ, to serve as the Max-E control. The rest of Hela cells were added with sterile IFNγ (Cat #285-IF, R & D systems) with a final concentration of 100 ng/mL.
Hela cells with and without IFNγ were dispensed to the respective wells of 384-well assay plates containing the compounds. The plates were incubated for about 48 hours at a 37° C., 5% CO2 incubator. Afterwards, 12 μL of 0.5 M methyl isonipecotate in dimethyl sulfoxide were added into each well and the plates were sealed and incubated at 37° C. without CO2 overnight. The plates were centrifuged for 1 min at 200×g. The resulting fluorescence was measured in a Spectramax plate reader (Molecular Devices) with a 400 nm excitation filter and a 510 nm emission filter.
The fluorescence intensity of each well was corrected for the background observed in wells with non-IFNγ-treated cells and was expressed as a fraction of the intensity observed in wells of IFNγ-treated cells and DMSO only. Potencies were calculated by linear least squares fit to the four parameter logistic IC50 equation.

Row | IC50 (IDO1 [1]) [nM] | IC50 (IDO1 [2]) [nM] | Compound
1 | 91.7 | 82 | CS(=N)(=O)CC12CC(Nc3nonc3/C(=N\O)N[C@@H]3Cc4ccc(F)cc43)(C1)C2 (single isomer, unassigned) [Example 82]
2 | 108 | 102 | CN(CCNc1nonc1/C(=N\O)N[C@H]1Cc2ccc(F)cc21)S(C)(=N)=O (stereo partly drawn) [Example 54, N-[(7S)-4-fluorobicyclo[4.2.0]octa-1,3,5-trien-7-yl]-N′-hydroxy-4-({2-[methyl(S-methylsulfonimidoyl)amino]ethyl}amino)-1,2,5-oxadiazole-3-carboximidamide]
3 | 47.2 | 41.8 | CON=[S@](C)(=O)CCNc1nonc1/C(=N/O)NC1Cc2ccc(F)cc21 (single isomer, unassigned) [Example 91]
4 | 63.7 | 140 | CN=S(C)(=O)NCCNc1nonc1/C(=N\O)N[C@H]1Cc2ccc(F)cc21 (single isomer, unassigned) [Example 67]
5 | 69.4 | 45.1 | CS(=N)(=O)NCCCCNc1nonc1/C(=N/O)N[C@H]1Cc2ccc(F)cc21 (stereo partly drawn) [Example 53, N-[(7S)-4-fluorobicyclo[4.2.0]octa-1,3,5-trien-7-yl]-N′-hydroxy-4-({4-[(S-methylsulfonimidoyl)amino]butyl}amino)-1,2,5-oxadiazole-3-carboximidamide]
6 | 64.6 | 48.5 | N=S(=O)(CCNc1nonc1/C(=N\O)N[C@@H]1Cc2ccc(F)cc21)C1CC1 (single isomer, unassigned) [Example 69]
7 | 49.5 | 63.5 | C[S@](=N)(=O)C1CC(Nc2nonc2/C(=N\O)N[C@@H]2Cc3ccc(F)cc32)C1 (single isomer, unassigned) [Example 72]
8 | 34.1 | 22.7 | CS(=N)(=O)N1CC2(CC(Nc3nonc3/C(=N\O)N[C@@H]3Cc4ccc(F)cc43)C2)C1 (single isomer, unassigned) [Example 77]
9 | 39.9 | 17.6 | CS(=N)(=O)N1CC2(CC(Nc3nonc3/C(=N\O)N[C@@H]3Cc4ccc(F)cc43)C2)C1 (single isomer, unassigned) [Example 76]
10 | 79.7 | 41.6 | CS(=N)(=O)N1CC(CNc2nonc2/C(=N\O)N[C@@H]2Cc3ccc(F)cc32)C1 (single isomer, unassigned) [Example 70]
11 | 94.5 | 68.5 | CS(=N)(=O)CCC(O)CNc1nonc1/C(=N\O)N[C@@H]1Cc2ccc(F)cc21 (single isomer, unassigned) [Example 80]
12 | 262 | 317 | CS(=N)(=O)NCCOc1nonc1/C(=N/O)N[C@H]1Cc2ccc(F)cc21 (single isomer, unassigned) [Example 51]
13 | 125 | 123 | CS(=O)(CCNc1nonc1/C(=N\O)N[C@H]1Cc2ccc(F)cc21)=NCCO (single isomer, unassigned) [Example 58]
14 | 95 | 62.8 | CS(=N)(=O)CCC(O)CNc1nonc1/C(=N\O)N[C@@H]1Cc2ccc(F)cc21 (single isomer, unassigned) [Example 81]
15 | 47.4 | 40.5 | CC(O)CS(=N)(=O)CCNc1nonc1/C(=N\O)N[C@@H]1Cc2ccc(F)cc21 (single isomer, unassigned) [Example 86]

Second part, the compound before the results:

Row | Compound | IC50 (IDO1 [1]) [nM] | IC50 (IDO1 [2]) [nM]
16 | CS(=N)(=O)N1CCC(Nc2nonc2/C(=N/O)N[C@H]2Cc3ccc(F)cc32)C1 (single isomer, unassigned) [Example 45] | 107 | 85
17 | CS(=N)(=O)N1CCC(Nc2nonc2/C(=N/O)N[C@H]2Cc3ccc(F)cc32)C1 (single isomer, unassigned) [Example 44] | 220 | 219
18 | CS(=N)(=O)CCOCCNc1nonc1/C(=N/O)N[C@H]1Cc2ccc(F)cc21 (single isomer, unassigned) [Example 47] | 154 | 196
19 | CS(=N)(=O)CCCNc1nonc1/C(=N/O)N[C@H]1Cc2ccc(F)cc21 (single isomer, unassigned) [Example 24] | 35.4 | 39.9
20 | CS(=N)(=O)N1CC(O)(CNc2nonc2/C(=N/O)N[C@H]2Cc3ccc(F)cc32)C1 (single isomer, unassigned) [Example 37] | 108 | 312
21 | CS(=N)(=O)CCCNc1nonc1/C(=N/O)N[C@H]1Cc2ccc(F)cc21 (single isomer, unassigned) [Example 25] | 31.2 | 42.7
22 | CS(=N)(=O)N1CCC(Nc2nonc2/C(=N/O)N[C@H]2Cc3ccc(F)cc32)CC1 (single isomer, unassigned) [Example 18] | 68.3 | 69.9
23 | N=S1(=O)CCC1CNc1nonc1/C(=N/O)N[C@H]1Cc2ccc(F)cc21 (single isomer, unassigned) [Example 23] | 143 | 99.4
24 | CS(=N)(=O)CCCCOc1nonc1/C(=N/O)N[C@H]1Cc2ccc(F)cc21 (single isomer, unassigned) [Example 33] | 184 | 288
25 | CS(=N)(=O)CCOCCNc1nonc1/C(=N/O)N[C@H]1Cc2ccc(F)cc21 (single isomer, unassigned) [Example 48] | 119 | 144
26 | CS(=N)(=O)CC(O)CNc1nonc1/C(=N/O)N[C@H]1Cc2ccc(F)cc21 (single isomer, unassigned) [Example 28] | 60.7 | 110
27 | CS(=N)(=O)CC(O)CNc1nonc1/C(=N/O)N[C@H]1Cc2ccc(F)cc21 (single isomer, unassigned) [Example 26] | 53.7 | 99.9
28 | CN=S(C)(=O)CCNc1nonc1/C(=N/O)N[C@H]1Cc2ccc(F)cc21 (single isomer, unassigned) [Example 35] | 81.6 | 43.2
29 | CS(=N)(=O)CC(O)CNc1nonc1/C(=N/O)N[C@H]1Cc2ccc(F)cc21 (single isomer, unassigned) [Example 27] | 43.3 | 129
30 | CS(=N)(=O)CCCCNc1nonc1/C(=N/O)N[C@H]1Cc2ccc(F)cc21 (single isomer, unassigned) [Example 38] | 47.2 | 26.7
31 | C[S@@](=N)(=O)CCCOc1nonc1/C(=N/O)NC1Cc2ccc(F)cc21 (single isomer, unassigned) [Example 30] | 231 | 384
32 | CS(=N)(=O)N1CCC(Nc2nonc2/C(=N/O)N[C@H]2Cc3ccc(F)cc32)C1 (single isomer, unassigned) [Example 43] | 169 | 157
33 | CS(=N)(=O)CCNC(=O)CNc1nonc1/C(=N/O)N[C@H]1Cc2ccc(F)cc21 (single isomer, unassigned) [Example 13] | 58.2 | 95.5
34 | CN=S(C)(=O)CCNc1nonc1/C(=N/O)N[C@H]1Cc2ccc(F)cc21 (single isomer, unassigned) [Example 34] | 59.8 | 77
35 | CS(=N)(=O)CCCCOc1nonc1/C(=N/O)N[C@H]1Cc2ccc(F)cc21 (single isomer, unassigned) [Example 32] | 178 | 241
36 | CS(=N)(=O)CCNC(=O)CNc1nonc1/C(=N/O)N[C@H]1Cc2ccc(F)cc21 (stereo partly drawn) [Example 12, 2-((4-(N-((S)-4-fluorobicyclo[4.2.0]octa-1(6),2,4-trien-7-yl)-N′-hydroxycarbamimidoyl)-1,2,5-oxadiazol-3-yl)amino)-N-(2-(S-methylsulfonimidoyl)ethyl)acetamide] | 49.3 | 114
